Tested on: tobacco budworm (Heliothis virescens)
Experiment: Test H: soil systemic control of tobacco budworm on cotton
Format: in vivo
Settings: soil treatment at 10 ppm
Protocol: For evaluating soil systemic control of tobacco budworm (Heliothis virescens), cotton plants were grown in sassafras soil in 15-cm pots in aluminum trays. When the plants reached square stage (bud formation on the plant) the plants were treated with the test compounds.
Test compounds were formulated in 0.25 mL of acetone and then diluted with water to provide solutions of 1, 5, 10 and 50 ppm. 10 mL of the treatment solutions were added to the pots weekly for four weeks, with four replicates of each treatment rate. One day after the second, third and fourth treatments, 35-50 first instar Heliothis virescens larvae were brushed on each plant with paintbrushes and placed on the terminal area, squares, and bolls. Five days after the last infestation with larvae the plants were rated for damage. Of the compounds tested, the following provided excellent levels of plant protection at 10 ppm (10% or less feeding damage): 16.

Compound: Cc1cc(Br)cc(C(=O)NC(C)C)c1NC(=O)c1cc(Br)nn1-c1ncccc1Cl [Compound 16]
- protection of squares and bolls: no feeding or minimal sepal damage
- feeding damage (excellent levels of plant protection) (10 mL weekly for four weeks, rated five days after last infestation): ≤ 10%

Source: US9084422B2, “Anthranilamides compositions” (E I DU PONT DE NEMOURS AND COMPANY, priority 2001, dated 2015)
